This is an account of results in patent publication US20120010264A1, “NOVEL MEDICAMENT FOR TREATING COGNITIVE IMPAIRMENT” (Dainippon Sumitomo Pharma Co., Ltd., priority 2009, published 2012).

Where two headings read alike, the source gives them in different places.

Data set [1] in a line: Brain delivery property: brain tissue and plasma concentration after oral administration. Type of data set: in vivo. The following applies: female, 10 mg/kg oral, one portion, C57BL/6J mouse; for Kp: brain and plasma, read-out: Kp value (brain/plasma AUC0-6 hr ratio); for half-life / AUC(0-t): non-fasting; for AUC(0-t): read-out: AUC0-6 hr. The method, then:
Method: Compound A or rosiglitazone (10 mg/kg) was orally administered in one portion to a mouse (C57BL/6J: female, 11 weeks old, 3 mice at each measuring point) under non-fasting condition. Its brain tissue and plasma were sequentially sampled for 6 hours after the administration to measure the concentration of the administered-compound. Based on each mean value of the concentrations in its brain tissue and plasma measured at several time points, each elimination half-life (t1/2) and area under the curve (AUC0-6hr) of the administered-compound were calculated.

Data set [2] is described as follows: Fluid retention as side effect: hematocrit level in high-fat diet obese diabetes mice. The following applies: for Hematocrit level: high-fat diet mouse; for Effect on hematocrit level in mice (summary of Example 5): dose not stated.
Data set [3] has as its system scavenger receptor CD36. In words: CD36 transcription level in microglial cells by real-time RT-PCR. Type of data set: cell-based. Particulars: 0.5 μM, 24 hours, neonatal rat microglial cells. The method, then:
Microglial cells derived from neonatal rats (Sumitomo Bakelite) were cultured for 24 hours in a culture medium containing Compound A (0.5 μM or 5 μM). Then, total RNA was extracted from the cells, and therewith the transcription levels of scavenger receptor CD36 and glyceraldehyde-3-phosphate dehydrogenase (GAPDH) were measured by real-time RT-PCR to calculate the CD36 transcription level as a value relative to the GAPDH transcription level. In order to compare the CD36 transcription levels treated in the different conditions, CD36 transcription level in the control that was cultured for 24 hours with only DMSO which was used as a solvent in the above cultivation of Compound A was measured, and then the relative ratio of each CD36 transcription level of Compound A per that of the control (=1) was calculated.
For orientation: Real-time PCR tracks product formation cycle by cycle.

Data set [4] has as its system rats with scopolamine-induced cognitive impairment. In words: Scopolamine-induced cognitive impairment model, passive avoidance test. The following applies: for Step-through latency: scopolamine 0.5 mg/kg i.p., rat, mean ± standard error, n = 11, up to 300 seconds. It is filed as in vivo, rat. The source says: It is known that scopolamine is a muscarinic acetylcholine receptor antagonist which causes memory impairment in animals and human. Thus, in order to evaluate the efficacy of an anti-Alzheimer's drug, a scopolamine-induced cognitive-impairment model is used in many evaluation tests of cognitive function including a passive avoidance test (Eur. J. Pharmacol., 383, 231, 1999). In Example 6, the effect of Compound A and rosiglitazone on cognitive function was studied using a passive avoidance test using rats with scopolamine-induced cognitive impairment.
Compound A (3, 10, 30 mg/kg) or rosiglitazone (1, 3, 10 mg/kg) was orally administered to a rat 60 minutes before training for the passive avoidance test. Scopolamine (0.5 mg/kg) or saline was intraperitoneally administered 30 minutes before the training. In the training period, the rat was put in a bright compartment and was allowed to explore for 10 seconds. Then, a door between the bright compartment and the dark one was opened, and as the rat went into the dark compartment, the door was closed. Three seconds later, the rat was given electroconvulsive shock (0.5 mA, 3 seconds). The passive avoidance response test was carried out 24 hours after the training. The rat was put in the bright compartment and was monitored to record the time that the rat stayed in the bright compartment (step-through latency) for up to 300 seconds. Dunnett's multiple comparison test (two-sided significance level 5%) was carried out to compare the step-through latency between the scopolamine treatment group and the scopolamine+test medicament treatment group. […] 0.5% Methylcellulose solution was used as a solvent of each compound.

Data set [5] concerns LPS-induced cognitive impairment mouse. In words: LPS-induced cognitive impairment model, Y-maze test (alternation behavior). The following applies: LPS i.c.v., percentage of alternation behavior in Y-maze. Type of data set: in vivo. The procedure:
It is known that lipopolysaccharide (LPS) can experimentally induce an inflammatory condition in brain like in Alzheimer's dementia patients. Thus, LPS-induced model is thought as a good disease model to study cognitive impairment caused by inflammation in Alzheimer's dementia (Neurosci. Res., 61, 113, 2008).
In Example 4-2, 5 μg of LPS (Eschenchia coli 055:B5, SIGMA) was intracerebroventricularly administered to a mouse (Slc:ddY mouse, 4 weeks old, male, Japan SLC, Inc.) in both ventricles, i.e. 2.5 μl of 1 mg/ml LPS was administered to each ventricle. LPS induced cognitive impairment in Y-maze test was appeared 4 days after treatment. (i.e. decrease of alternation behavior). Compound A (10, 30, 100 mg/kg, p.o., n=14-16) or rosiglitazone (1, 3, 10 mg/kg, p.o., n=8) was administered 30 minutes before the LPS administration, and 1, 2, 3 days after the LPS administration, and also 1 hour before the Y-maze test to evaluate the effect for improving cognitive function. 0.5% Methylcellulose solution was used as a solvent of each compound.

The conditions of data set [6]: post-marketing surveillance; cited from earlier work.
The conditions of data set [7]: mouse, in vivo.
[8] abbreviates: 3 mg/kg oral once a day for 8 weeks.
Where [9] appears, read: 10 mg/kg oral once a day for 8 weeks.

In the case of `Cc1ccc(C(=O)c2cccn2C/C=C/c2ccc(COC(C)(C)C(=O)O)cc2)cc1` [Compound A, 2-Methyl-2-[(4-{(1E)-3-[2-(4-methylbenzoyl)-1H-pyrrol-1-yl]prop-1-en-1-yl}benzyl)oxy]propionic acid], the Kp in data set [1] is 0.154. For the same molecule, the half-life in data set [1] (brain) is 4.26 h; in data set [1] (plasma) it was 4.59 h. The figures for the AUC(0-t) in data set [1] (brain) and in data set [1] (plasma) were 1500 ng·h/mL and 9710 ng·h/mL, respectively. In addition, the values for the Hematocrit level in data set [2] (setting [8]), in data set [2] (setting [9]) and in data set [2] (30 mg/kg oral once a day for 8 weeks) were 47.7 ± 2.0%, 48.7 ± 1.2% and 48.7 ± 1.5%, respectively. The “Effect on hematocrit level in mice (summary of Example 5)” value (from here on “Effect on hematocrit level in mice”) in data set [2] is “did not significantly affect”. In addition, in data set [3], the “CD36 transcription level relative to GAPDH, ratio per DMSO control (=1)” value came out at 1.44. Besides, in data set [4] (3 mg/kg p.o.), the Step-through latency worked out at 162.5 ± 28.2 s. Besides, the “Effect on cognitive function (step-through latency)” value in data set [4] (single oral administration 3-30 mg/kg, scopolamine rat) is “improved cognitive function in a dose-dependent manner”. The molecule further gave an Alternation behavior in data set [5] (10 mg/kg p.o.) of 66.5 ± 2.8.
Turning to `CN(CCOc1ccc(CC2SC(=O)NC2=O)cc1)c1ccccn1` (stereo not drawn) [Rosiglitazone, rosiglitazone], in data set [1], the Kp worked out at 0.0451. In addition, the half-life was 1.06 h in data set [1] (brain) and 1.26 h in data set [1] (plasma). Besides, the AUC(0-t) in data set [1] (brain) is 1820 ng·h/mL; in data set [1] (plasma) it was 40400 ng·h/mL. Besides, the Hematocrit level was 47.4 ± 1.9% in data set [2] (0.1 mg/kg oral once a day for 8 weeks); 46.6 ± 1.9 % in data set [2] (0.3 mg/kg oral once a day for 8 weeks); 45.6 ± 0.9 % in data set [2] (1 mg/kg oral once a day for 8 weeks); 44.7 ± 1.5 % in data set [2] (setting [8]); 41.1 ± 4.9 % in data set [2] (setting [9]). Further, the “Effect on hematocrit level in mice” value in data set [2] is on record as “decreased”. Besides, in data set [2] (dose of 0.3 mg/kg or more, oral once a day for 8 weeks), the “Change of hematocrit level vs solvent” value was “significantly decreased”. In addition, the Step-through latency was 144.8 ± 28.3 s in data set [4] (1 mg/kg p.o.), 164.5 ± 33.1 s in data set [4] (3 mg/kg p.o.) and 170.7 ± 30.2 s in data set [4] (10 mg/kg p.o.). Besides, the “Frequency of fluid retention (peripheral edema)” value in data set [6] is listed as “high”. For the same molecule, the results for the Alternation behavior in data set [5] (1 mg/kg p.o.), in data set [5] (3 mg/kg p.o.) and in data set [5] (10 mg/kg p.o.) were 68.4 ± 5.0, 71.9 ± 4.1 and 73.4 ± 2.7, respectively.
In the case of `CCc1ccc(CCOc2ccc(CC3SC(=O)NC3=O)cc2)nc1` (stereo not drawn) [pioglitazone], the “Effect on hematocrit level in mice” value in data set [7] is given as “decreased”.

By half-life is commonly meant how long it takes for the measured level to halve. The low end stands for fast loss, the high end for slow loss.
